According to patent US8835472B2, “Compounds, pharmaceutical compositions and uses thereof” (Boehringer Ingelheim International GmbH, priority 2010, dated 2014):

Biological target: human ACC2 (Homo sapiens (Human), UniProt O00763)
Test: ACC2 assay, spectrophotometric 384 well assay (NADH-linked, coupled lactate dehydrogenase/pyruvate kinase reaction)
Assay type: biochemical
Settings: hACC2 construct lacking the 128 N-terminal amino acids; 25° C., 340 nm over 15 minutes
Summary of the method: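 Kinetic NADH-linked assay (pyruvate kinase/lactate dehydrogenase coupling) with baculovirus-expressed hACC2 missing its first 128 amino acids. Started with 500 μM ATP and 200 μM each NADH and acetyl-CoA; slope followed 15 min at 25 °C, pH 7.5. No-acetyl-CoA wells define 0%; IC50 by nonlinear regression.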

Chain of human ACC2 (O00763 129-2458): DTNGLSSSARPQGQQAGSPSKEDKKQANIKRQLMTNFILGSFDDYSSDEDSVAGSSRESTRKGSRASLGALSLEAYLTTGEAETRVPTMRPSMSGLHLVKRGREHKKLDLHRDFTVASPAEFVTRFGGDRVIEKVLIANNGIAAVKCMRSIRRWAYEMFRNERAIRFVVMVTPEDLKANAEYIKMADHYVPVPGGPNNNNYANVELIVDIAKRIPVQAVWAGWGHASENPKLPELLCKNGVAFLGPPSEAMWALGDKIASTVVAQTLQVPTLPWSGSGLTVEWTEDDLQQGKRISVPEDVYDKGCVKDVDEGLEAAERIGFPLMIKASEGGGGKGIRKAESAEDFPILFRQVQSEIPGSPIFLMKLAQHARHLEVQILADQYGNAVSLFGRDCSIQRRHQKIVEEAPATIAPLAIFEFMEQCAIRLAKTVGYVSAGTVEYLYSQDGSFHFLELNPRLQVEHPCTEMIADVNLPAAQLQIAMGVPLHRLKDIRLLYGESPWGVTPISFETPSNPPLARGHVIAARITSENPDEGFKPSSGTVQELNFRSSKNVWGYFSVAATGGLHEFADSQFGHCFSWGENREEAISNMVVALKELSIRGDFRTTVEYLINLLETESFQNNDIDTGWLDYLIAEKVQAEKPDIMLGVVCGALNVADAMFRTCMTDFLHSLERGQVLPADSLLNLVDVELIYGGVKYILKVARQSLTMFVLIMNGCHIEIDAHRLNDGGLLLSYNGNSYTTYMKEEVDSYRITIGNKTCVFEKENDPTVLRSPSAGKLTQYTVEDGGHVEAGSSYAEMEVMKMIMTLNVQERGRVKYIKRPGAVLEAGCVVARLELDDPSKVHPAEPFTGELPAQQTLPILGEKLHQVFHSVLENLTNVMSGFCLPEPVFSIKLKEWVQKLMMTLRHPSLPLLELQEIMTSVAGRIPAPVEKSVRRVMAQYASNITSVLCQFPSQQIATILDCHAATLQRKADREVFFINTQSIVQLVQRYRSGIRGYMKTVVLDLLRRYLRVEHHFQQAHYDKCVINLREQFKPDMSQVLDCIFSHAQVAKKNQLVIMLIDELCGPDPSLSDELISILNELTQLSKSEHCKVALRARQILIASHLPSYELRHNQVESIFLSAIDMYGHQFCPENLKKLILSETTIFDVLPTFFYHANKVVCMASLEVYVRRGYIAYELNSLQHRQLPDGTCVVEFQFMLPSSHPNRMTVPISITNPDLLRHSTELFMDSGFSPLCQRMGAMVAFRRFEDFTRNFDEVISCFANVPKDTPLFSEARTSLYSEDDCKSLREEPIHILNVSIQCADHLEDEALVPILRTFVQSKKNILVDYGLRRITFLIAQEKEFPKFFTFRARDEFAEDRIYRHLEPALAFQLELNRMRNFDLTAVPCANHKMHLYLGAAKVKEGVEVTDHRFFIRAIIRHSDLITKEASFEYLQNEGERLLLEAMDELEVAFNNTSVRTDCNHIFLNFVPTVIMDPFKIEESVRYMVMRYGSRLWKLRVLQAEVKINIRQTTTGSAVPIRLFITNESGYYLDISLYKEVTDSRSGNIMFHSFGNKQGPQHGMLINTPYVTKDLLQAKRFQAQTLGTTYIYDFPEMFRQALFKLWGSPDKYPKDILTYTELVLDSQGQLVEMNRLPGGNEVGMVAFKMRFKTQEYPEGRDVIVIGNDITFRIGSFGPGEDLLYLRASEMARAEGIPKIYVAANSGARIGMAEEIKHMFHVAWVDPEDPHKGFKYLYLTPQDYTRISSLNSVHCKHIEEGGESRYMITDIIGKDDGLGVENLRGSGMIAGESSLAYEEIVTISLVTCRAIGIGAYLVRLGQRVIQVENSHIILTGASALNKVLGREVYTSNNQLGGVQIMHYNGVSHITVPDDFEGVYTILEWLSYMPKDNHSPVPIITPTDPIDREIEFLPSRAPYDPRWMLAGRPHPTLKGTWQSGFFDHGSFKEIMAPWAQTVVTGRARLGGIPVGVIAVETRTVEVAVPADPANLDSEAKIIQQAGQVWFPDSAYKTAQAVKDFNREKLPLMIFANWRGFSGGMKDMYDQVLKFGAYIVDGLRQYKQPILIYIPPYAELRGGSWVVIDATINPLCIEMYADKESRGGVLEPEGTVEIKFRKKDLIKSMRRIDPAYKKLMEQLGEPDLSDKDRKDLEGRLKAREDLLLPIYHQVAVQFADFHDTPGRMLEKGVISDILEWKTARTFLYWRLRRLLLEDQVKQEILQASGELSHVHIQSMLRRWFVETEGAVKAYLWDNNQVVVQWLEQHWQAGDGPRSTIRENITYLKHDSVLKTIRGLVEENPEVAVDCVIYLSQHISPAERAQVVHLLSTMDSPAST

IC50 [nM]	Structure (SMILES)
500	CC(=O)NC(C)Cc1ccc(C#Cc2ccc(C(=O)N3CCCCC3)cc2)cc1 (stereo not shown) [Example 8.1, N-(1-(4-((4-(piperidine-1-carbonyl)phenyl)ethynyl)phenyl)propan-2-yl)acetamide]
5600	CC(=O)NC(C)Cc1ccc(C#Cc2ccc(C(=O)N(C)Cc3nc(C)oc3C)cc2)cc1 (stereo not shown) [Example 8.2]
13000	CC(=O)NC(C)Cc1ccc(C#Cc2ccc(C(=O)NCc3cccnc3)cc2)cc1 (stereo not shown) [Example 8.3]
1600	CC(=O)NC(C)Cc1ccc(C#Cc2ccc(C(=O)NC3CCCC3)cc2)cc1 (stereo not shown) [Example 8.4]
1500	CC(=O)NC(C)Cc1ccc(C#Cc2ccc(C(=O)NCC3CC3)cc2)cc1 (stereo not shown) [Example 8.6]
26300	CC(=O)NC(C)Cc1ccc(C#Cc2ccc(C(=O)NCC3CCCO3)cc2)cc1 (stereo not shown) [Example 8.7]
3700	CC(=O)NC(C)Cc1ccc(C#Cc2ccc(C(=O)N(C)Cc3ccccc3)cc2)cc1 (stereo not shown) [Example 8.9]
1100	CCCN(C)C(=O)c1ccc(C#Cc2ccc(CC(C)NC(C)=O)cc2)cc1 (stereo not shown) [Example 8.10]
16600	CC(=O)NC(C)Cc1ccc(C#Cc2ccc(C(=O)NCc3ccncc3)cc2)cc1 (stereo not shown) [Example 8.11]
1500	CC(=O)NC(C)Cc1ccc(C#Cc2ccc(C(=O)N3Cc4ccccc4C3)cc2)cc1 (stereo not shown) [Example 8.12]
2400	CC(=O)NC(C)Cc1ccc(C#Cc2ccc(C(=O)N(C)C3CCCC3)cc2)cc1 (stereo not shown) [Example 8.13]
11500	CC(=O)NC(C)Cc1ccc(C#Cc2ccc(C(=O)N(C)Cc3cccnc3)cc2)cc1 (stereo not shown) [Example 8.14]
2200	CC(=O)NC(C)Cc1ccc(C#Cc2ccc(C(=O)N3CCC3)cc2)cc1 (stereo not shown) [Example 8.15]
1900	CC(=O)NC(C)Cc1ccc(C#Cc2ccc(C(=O)N3CCC(C)(C)CC3)cc2)cc1 (stereo not shown) [Example 8.16]
4400	CCNC(=O)c1ccc(C#Cc2ccc(CC(C)NC(C)=O)cc2)cc1 (stereo not shown) [Example 8.17]
7700	CC(=O)NC(C)Cc1ccc(C#Cc2cccc(C(=O)NCC(F)(F)F)c2)cc1 (stereo not shown) [Example 8.18]
4600	CC(=O)NC(C)Cc1ccc(C#Cc2ccc(C(=O)N(C)c3ccccc3)cc2)cc1 (stereo not shown) [Example 8.19]
4400	CC(=O)NC(C)Cc1ccc(C#Cc2ccc(C(=O)NC(C)C)cc2)cc1 (stereo not shown) [Example 8.20]
1400	CC(=O)NC(C)Cc1ccc(C#Cc2ccc(C(=O)NC3CCC3)cc2)cc1 (stereo not shown) [Example 8.21]

IC50 [nM]	Structure (SMILES)
6500	CC(=O)NC(C)Cc1ccc(C#Cc2cccc(C(=O)N(C)CCO)c2)cc1 (stereo not shown) [Example 8.22]
10900	CC(=O)NC(C)Cc1ccc(C#Cc2cccc(C(=O)NCc3ccccn3)c2)cc1 (stereo not shown) [Example 8.23]
30000	CC(=O)NC(C)Cc1ccc(C#Cc2cccc(C(=O)NCCN3CCOCC3)c2)cc1 (stereo not shown) [Example 8.24]
2400	CCCN(C)C(=O)c1cccc(C#Cc2ccc(CC(C)NC(C)=O)cc2)c1 (stereo not shown) [Example 8.25]
1500	CC(=O)NC(C)Cc1ccc(C#Cc2cccc(C(=O)NC3CCCC3)c2)cc1 (stereo not shown) [Example 8.26]
11100	COCCNC(=O)c1cccc(C#Cc2ccc(CC(C)NC(C)=O)cc2)c1 (stereo not shown) [Example 8.27]
5000	CC(=O)NC(C)Cc1ccc(C#Cc2cccc(C(=O)NCC3CC3)c2)cc1 (stereo not shown) [Example 8.28]
4500	CC(=O)NC(C)Cc1ccc(C#Cc2cccc(C(=O)NCC3CCCO3)c2)cc1 (stereo not shown) [Example 8.29]
2800	CC(=O)NC(C)Cc1ccc(C#Cc2cccc(C(=O)NCC(C)C)c2)cc1 (stereo not shown) [Example 8.30]
14500	CC(=O)NC(C)Cc1ccc(C#Cc2cccc(C(=O)N3CCC(c4ccncc4)C3)c2)cc1 (stereo not shown) [Example 8.31]
2100	CC(=O)NC(C)Cc1ccc(C#Cc2cccc(C(=O)N3CCCCC3)c2)cc1 (stereo not shown) [Example 8.32]
2000	CC(=O)NC(C)Cc1ccc(C#Cc2cccc(C(=O)N(C)C3CCCC3)c2)cc1 (stereo not shown) [Example 8.33]
1200	CC(=O)NC(C)Cc1ccc(C#Cc2cccc(C(=O)NC3CCC3)c2)cc1 (stereo not shown) [Example 8.34]
2400	CCC(C)NC(=O)c1cccc(C#Cc2ccc(CC(C)NC(C)=O)cc2)c1 (stereo not shown) [Example 8.35]
1600	CC(=O)NC(C)Cc1ccc(C#Cc2cccc(C(=O)N3CCC(C)(C)CC3)c2)cc1 (stereo not shown) [Example 8.37]
14300	CCNC(=O)c1cccc(C#Cc2ccc(CC(C)NC(C)=O)cc2)c1 (stereo not shown) [Example 8.38]
13400	CC(=O)NC(C)Cc1ccc(C#Cc2cccc(C(=O)N(C)Cc3ccncc3)c2)cc1 (stereo not shown) [Example 8.39]
6700	CC(=O)NC(C)Cc1ccc(C#Cc2cccc(C(=O)N(C)c3ccccc3)c2)cc1 (stereo not shown) [Example 8.40]
23300	CC(=O)NC(C)Cc1ccc(C#Cc2cccc(C(=O)NC(C)c3ccccc3)c2)cc1 (stereo not shown) [Example 8.41]

IC50 [nM]	Structure (SMILES)
30000	CC(=O)NC(C)Cc1ccc(C#Cc2cccc(C(=O)N3Cc4ccccc4C3)c2)cc1 (stereo not shown) [Example 8.42]
3900	CC(=O)NC(C)Cc1ccc(C#Cc2ccc(C(=O)N(C)C)cc2)cc1 (stereo not shown) [Example 8.43]
22100	CNC(=O)c1ccc(C#Cc2ccc(CC(C)NC(C)=O)cc2)cc1 (stereo not shown) [Example 8.44]
1400	CC(=O)NC(C)Cc1ccc(C#Cc2ccc(C(=O)N3CCCC3)cc2)cc1 (stereo not shown) [Example 8.45]
11300	CC(=O)NC(C)Cc1ccc(C#Cc2ccc(C(=O)N3CCN(C)CC3)cc2)cc1 (stereo not shown) [Example 8.46]
12100	CC(=O)NC(C)Cc1ccc(C#Cc2cccc(C(=O)N(C)CC(=O)OC(C)(C)C)c2)cc1 (stereo not shown) [Example 8.47]
6200	CC(=O)NC(C)Cc1ccc(C#Cc2cccc(C(=O)N3CCCC3)c2)cc1 (stereo not shown) [Example 8.48]
22000	CC(=O)NC(C)Cc1ccc(C#Cc2cccc(C(=O)N3CCC(C(=O)OC(C)(C)C)C3)c2)cc1 (stereo not shown) [Example 8.49]
30000	CC(=O)NC(C)Cc1ccc(C#Cc2cccc(C(=O)N3CCc4ccccc4C3)c2)cc1 (stereo not shown) [Example 8.51]
25100	CC(=O)NC(C)Cc1ccc(C#Cc2cccc(C(=O)N3CCN(C)CC3)c2)cc1 (stereo not shown) [Example 8.54]
220	CCC(CC)Oc1ccc(C#Cc2ccc(CC(C)NC(C)=O)cc2)cc1 (stereo not shown) [Example 9.1, N-(1-(4-((4-(pentan-3yloxy)phenyl)ethynyl)phenyl)propan-2-yl)acetamide]
100	CC(=O)NC(C)Cc1ccc(C#Cc2ccc(OC3CCCC3)cc2)cc1 (stereo not shown) [Example 9.2]
90	CCCCOc1ccc(C#Cc2ccc(CC(C)NC(C)=O)cc2)cc1 (stereo not shown) [Example 9.3]
610	COCCOc1ccc(C#Cc2ccc(CC(C)NC(C)=O)cc2)cc1 (stereo not shown) [Example 9.4]
22100	CC(=O)NC(C)Cc1ccc(C#Cc2ccc(OCCN3CCCCC3)cc2)cc1 (stereo not shown) [Example 9.5]
9400	CC(=O)NC(C)Cc1ccc(C#Cc2ccc(OCCN3CCOCC3)cc2)cc1 (stereo not shown) [Example 9.6]
1900	CC(=O)NC(C)Cc1ccc(C#Cc2ccc(OC3CCN(C)C3)cc2)cc1 (stereo not shown) [Example 9.7]
810	CCC(CC)Oc1cccc(C#Cc2ccc(CC(C)NC(C)=O)cc2)c1 (stereo not shown) [Example 9.8]
9200	CC(=O)NC(C)Cc1ccc(C#Cc2cccc(OCCN3CCCCC3)c2)cc1 (stereo not shown) [Example 9.9]

The remaining lines, values behind:

Structure (SMILES)	IC50 [nM]
CCOc1ccc(C#Cc2ccc(CC(C)NC(=O)c3cncs3)cc2)cc1 (stereo not shown) [Example 4.67]	70
CCOc1ccc(C#Cc2ccc(CC(C)NC(=O)c3cc[nH]c3)cc2)cc1 (stereo not shown) [Example 4.68]	450
CCOc1ccc(C#Cc2ccc(CC(C)NC(=O)c3cn[nH]c3)cc2)cc1 (stereo not shown) [Example 4.69]	70
CCOc1ccc(C#Cc2ccc(CC(C)NC(=O)CCNC(C)=O)cc2)cc1 (stereo not shown) [Example 4.70]	1300
CCOc1ccc(C#Cc2ccc(CC(C)NC(=O)c3ocnc3C)cc2)cc1 (stereo not shown) [Example 4.71]	430
CCOc1ccc(C#Cc2ccc(CC(C)NC(=O)c3cnon3)cc2)cc1 (stereo not shown) [Example 4.72]	940
CCOc1ccc(C#Cc2ccc(CC(C)NC(=O)c3nc[nH]n3)cc2)cc1 (stereo not shown) [Example 4.73]	19200
CCOc1ccc(C#Cc2ccc(CC(C)NC(=O)C3CCNC3)cc2)cc1 (stereo not shown) [Example 4.74]	2800
CCOc1ccc(C#Cc2ccc(C(C)NC(=O)C3CC3C)cc2)cc1 (stereo not shown) [Example 4.75]	15400
CC(CNC(=O)CC#N)c1ccc(C#Cc2cnc(OC3CCC3)nc2)cc1 (stereo not shown) [Example 4.76]	660
CC(CNC(=O)c1cn[nH]c1)c1ccc(C#Cc2cnc(OC3CCC3)nc2)cc1 (stereo not shown) [Example 4.77]	460
CCC(=O)NCC(C)c1ccc(C#Cc2cnc(OC3CCC3)nc2)cc1 (stereo not shown) [Example 4.78]	290
CC(CNC(=O)C(F)F)c1ccc(C#Cc2cnc(OC3CCC3)nc2)cc1 (stereo not shown) [Example 4.79]	160
COc1ncc(C#Cc2ccc(C(C)CNC(=O)c3cn[nH]c3)cc2)cn1 (stereo not shown) [Example 4.80]	7700
CCOc1ccc(C#Cc2ccc(CC(C)NS(=O)(=O)C3CC3)cc2)cc1 (stereo not shown) [Example 5.1]	250
CCOc1ccc(C#Cc2ccc(C(C)NS(=O)(=O)CC3CC3)cc2)cc1 (stereo not shown) [Example 5.2]	7200
CCCS(=O)(=O)NC(C)Cc1ccc(C#Cc2ccc(OCC)cc2)cc1 (stereo not shown) [Example 5.3]	1200
CCOc1ccc(C#Cc2ccc(CC(C)NS(C)(=O)=O)cc2)cc1 (stereo not shown) [Example 5.4]	330
CCOc1ccc(C#Cc2ccc(C(C)NC(=O)Nc3ccc(N(C)C)cc3)cc2)cc1 (stereo not shown) [Example 6.1]	30000
CCOc1ccc(C#Cc2ccc(C(C)NC(=O)Nc3cccnc3)cc2)cc1 (stereo not shown) [Example 6.2]	2200
CCNC(=O)NC(C)Cc1ccc(C#Cc2ccc(OCC)cc2)cc1 (stereo not shown) [Example 6.3]	230
CCOc1ccc(C#Cc2ccc(C(C)NC(=O)NCC(=O)O)cc2)cc1 (stereo not shown) [Example 6.4]	9600
CCOc1ccc(C#Cc2ccc(C(C)NC(=O)N(C)C)cc2)cc1 (stereo not shown) [Example 7.1, 3-(1-(4-((4-Ethoxyphenyl)ethynyl)phenyl)ethyl)-1,1-dimethylurea]	620
CCOc1ccc(C#Cc2ccc(CC(C)NC(=O)N(C)C)cc2)cc1 (stereo not shown) [Example 7.2]	190
CCOc1ccc(C#Cc2ccc(CC(C)NC(=O)N(C)CC)cc2)cc1 (stereo not shown) [Example 7.3]	360
